Reference: patent US20140212407A1, “TREATMENT OF OBESITY” (Isis Innovation Limited, priority 2008, published 2014)

Assays:
[1] = Body weight and food intake in rats on MR diet with or without L-cysteine, 3 weeks; type: in vivo, rat; conditions: L-cysteine 5 g/kg added to MR diet, preliminary
Excerpt: To distinguish the effect of cysteine on body weight from that of methionine, the same experiment described above was repeated with addition of a third group. In addition to the methionine restricted (MR) and control groups, a third group was included comprising rats fed an MR diet supplemented with L-cysteine at a concentration of 5 g/kg diet. Age of the rats at the start of experiment, housing conditions and MR and control diets were similar to those in the above experiment. Food and water were provided ad libitum. Each group consisted of 8 rats; there was no significant difference in body weight between the 3 groups at baseline.

[2] = test system: gene for CGL; conditions: by inhibition of the ERK/Sp1 signalling pathway; Fiorucci et al 2005; cited from earlier work
[3] = humans, concentration-dependent; Smith et al 2003; cited from earlier work
[4] = Badiou et al. 2005; cited from earlier work
[5] = target: cystathionine γ-lyase (CGL) (Homo sapiens, UniProt P32929); conditions: Steegborn et al J Biol Chem 1999; cited from earlier work
Sequence of cystathionine γ-lyase (CGL) (P32929 whole entry): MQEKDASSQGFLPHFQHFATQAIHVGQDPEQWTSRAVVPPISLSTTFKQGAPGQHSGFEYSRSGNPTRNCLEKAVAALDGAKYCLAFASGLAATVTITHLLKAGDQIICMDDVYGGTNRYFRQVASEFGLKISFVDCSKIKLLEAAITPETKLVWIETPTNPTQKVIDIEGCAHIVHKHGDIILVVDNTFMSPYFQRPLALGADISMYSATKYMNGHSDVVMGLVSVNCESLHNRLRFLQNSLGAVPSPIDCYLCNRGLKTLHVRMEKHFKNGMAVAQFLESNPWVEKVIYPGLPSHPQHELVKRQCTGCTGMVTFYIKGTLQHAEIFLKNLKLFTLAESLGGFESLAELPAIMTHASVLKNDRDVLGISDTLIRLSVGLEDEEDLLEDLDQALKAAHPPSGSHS

For `N[C@@H](CS)C(=O)O` [L-cysteine], which “effect on weight gain of MR rats” value [1] is on record?
Its value is “prevented the decrease in weight gain”.

With `CC(C(=O)O)c1cccc(C(=O)c2ccccc2)c1` (stereo not shown) [ketoprofen] as the compound, how does the “expression of the gene for CGL” value [2] read?
Its value is “reduce expression”.

For `O=S(=O)(O)CCS` [mesna], which “plasma level of cysteine” value [3] is on record?
Its value is “markedly reduces”.

For `COc1ccc2c(c1)c(CC(=O)O)c(C)n2C(=O)c1ccc(Cl)cc1` [indomethacin], which “expression of the gene for CGL” value [2] is on record?
Its value is “reduce expression”.

Which plasma cysteine levels [4] does the source give for `CC1(C)C[C@@H]1C(=O)N/C(=C\CCCCSC[C@H](N)C(=O)O)C(=O)O` [Cilastatin, cilastatin] here?
The plasma cysteine levels was “lowers plasma cysteine levels”.

For `CC(=O)Oc1ccccc1C(=O)O` [aspirin], which “expression of the gene for CGL” value [2] is on record?
The value was “reduce expression”.

For `C#CCC(N)C(=O)O` (stereo not shown) [propargylglycine], which “inhibition of CGL enzyme activity” value [5] is on record?
Its value is “potent inhibitors”.
